# Assay results from patent US8835403B2, “Algin oligosaccharides and the derivatives thereof as well as the manufacture and the use of the same” (priority 2004, dated 2014).
# Columns and labels:
# [1] = system: diabetic mice induced by STZ; experiment: Blood glucose of diabetic mice induced by streptozotocin (STZ); assay type: in vivo; conditions: dimethyldiguanide 5 mg/kg for 10 days, blood on 11th day; STZ 150 mg/kg i.p.
# Experimental: Sixty male NIH mice (weighed 18-22 g) are randomly divided to control, model, 50, 150, 450 mg/kg 6-mer-treated and 5 mg/kg dimethyldiguanide-treated groups. The mice are injected intraperitoneally with 150 mg/kg STZ except control group at the 1st day. Then the mice are given accordingly drugs consecutively for 10 days and eyeballs are picked out to extract blood on the 11th day. The blood is taken to measure the glucose concentration.
# [2] = system: AD mice induced by Aβ1-40; experiment: Morris water maze test of AD mice induced by Aβ1-40; assay type: in vivo
# Experimental: (§1) Male Balb/c mice (18-22 g, purchased from Laboratory Centre of Shandong University) are weighed and randomly assigned to six groups as follows: a control group, a model group, a low-concentration (15 mg/kg) 6-mer-treated group, a middle-concentration (30 mg/kg) 6-mer-treated group, a high-concentration (60 mg/kg) 6-mer-treated group, and a Huperzine A-treated (HBY, with a concentration of 0.2 mg/kg) group. The mice were oral administered with corresponding drugs on day 3 after grouping. The drugs were administered once a day consecutively with a dosage of 0.5 ml/20 g until the experiment is completed. The mice of control and model groups were simultaneously administered with an equivalent amount of normal saline.
# On the 8th day after drug administration, mice are injected with aged Aβ1-40 except the vehicle group as the method of reference (Jhoo J H et al., β-amyloid (1-42)-induced learning and memory deficits in mice: involvement of oxidative burdens in the hippocampus and cerebral cortex. Behavioural Brain Research (2004) 155: 185-196) to induce the AD model. Aged Aβ1-40 solution is injected into the right cerebral ventricle. […] However, on the 1st day of test, this increased escape latency is shortened in all drug-treated groups except the group treated with 15 mg/kg of 6-mer. And the escape latency of 60 mg/kg 6-mer-treated group has statistical significance compared with that of the model group (P<0.05). On the 2nd and 3rd day of test, the escape latency of all drug-treated groups are shortened, wherein that of 60 mg/kg 6-mer-treated group and HBY-treated group have statistical significance compared with that of the model group (P<0.05).
# On the 4th day of Morris water maze test, the original plate is removed and the percentage of time of mice staying at the phase of original plate within 60 s is recorded.
# [3] = system: AD mice induced by Aβ1-40; experiment: Step-through passive avoidance task of AD mice induced by Aβ1-40; assay type: in vivo; conditions: HBY 0.2 mg/kg
# Experimental: as §1
# On the 25th day after Aβ injection, mice are further trained for step-through passive avoidance task. In the task, each mouse is placed in the illuminated compartment of the apparatus, facing away from the dark compartment, and the door is opened, allowing access to the dark compartment. Once the mouse enters the dark compartment, it receives an inescapable electric shock on the feet (36 V) through the stainless steel grid floor. The test is similarly performed after 24 h. The entry time of each mouse into the dark chamber (step-through latency, maximum testing limited to 3 min) and the number of entries into the dark compartment (number of errors) are recorded.
# Each group has 8 animals. The data are presented as mean±SE. The symbol # means significant difference compared with the control group (P<0.05). * means significant difference compared with the model group (P<0.05). The step-through latency of Aβ1-40-treated group is shortened (P<0.01) and the error number is increased (P<0.05) compared with that of the control group, indicating the successful establishment of AD mice.
# ChAT = experiment: Cerebral cortex ChAT activity of Aβ1-40-induced AD mice; assay type: in vivo; conditions: HBY 0.2 mg/kg
# SOD = SOD activity of cerebral cortex and hippocampus of Aβ1-40-induced AD mice; assay type: in vivo; conditions: HBY 0.2 mg/kg
# MDA = MDA content of cerebral cortex and hippocampus of Aβ1-40-induced AD mice; assay type: in vivo; conditions: HBY 0.2 mg/kg
# GSH-PX = GSH-PX activity in cerebral cortex and hippocampus of Aβ1-40-induced AD mice; assay type: in vivo; conditions: HBY 0.2 mg/kg
# Experimental: (§2) Following the behavioral test, rats are decapitated. Cerebral cortex and hippocampus are dissected on ice immediately, and stored at −80° C. after quick freezing in liquid nitrogen for 1 hour. MDA, SOD, GSH-PX, Na^+, K^+-ATPase, AchE and CHAT activities in the brain regions are determined using the respective kits. The homogenates of cerebral cortex and hippocampus are prepared with saline with a final concentration of 10% and 5%. The supernatant were obtained after centrifuging at 3600 rpm to test MDA, CuZn-SOD, GSH-PX, Na^+K^+-ATPase, AchE, and CHAT activities. The activity of ChAT is determined with isotope-labeled method. The other indexes and amount of total proteins are tested with the respective kits supplied by Nanjing Jiancheng Bioengineering Institute.
# The GSH-PX activity in cerebral cortex and hippocampus is decreased after usage of Aβ with significant difference to the control group in hippocampus (p<0.05).
# Na+, K+-ATPase = Na+, K+-ATPase activity in cerebral cortex and hippocampus of Aβ1-40-induced AD mice; assay type: in vivo; conditions: HBY 0.2 mg/kg
# Experimental: as §2
# Aβ1-40 fibril = Aβ1-40 fibril (Homo sapiens, UniProt P05067); experiment: Destability of preformed Aβ1-40 fibril (TEM); assay type: biochemical; conditions: Aβ1-40 aged 7 d, then heparin for additional 24 h (FIG. 10B)
# Chain of Aβ1-40 fibril (P05067 672-711 limits assumed): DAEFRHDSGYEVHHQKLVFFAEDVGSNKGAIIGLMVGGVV
# Experimental: 1 mg/ml of distilled water-resolved Aβ1-40 is aged at 37° C. for 7d, after which it is exposed to 6-mer for 3 days.
# Aβ1-40 = Aβ1-40 (Homo sapiens, UniProt P05067); experiment: Conformation of Aβ1-40 by CD spectra; assay type: biochemical; conditions: heparin (FIG. 11B)
# Chain of Aβ1-40 (P05067 672-711 limits assumed): as above
# Experimental: CD spectra (J-[…], JASCO, Japan) of monomeric Aβ1-40 (250 μg/ml in TBS (100 mM Tris, 50 mM NaCl, pH7.4)) incubated at 37° C. for 12 h is mainly characterized by β-sheet secondary structure (FIG. 11A).
compound,measurement,setting,value
"CN(C)C(=N)NC(=N)N [Dimethyldiguanide, dimethyldiguanide, reference compound]",Blood glucose concentration,[1],201.6 ± 58.9 mg/dL
"C/C=C1\[C@H]2C=C(C)C[C@]1(N)c1ccc(=O)[nH]c1C2 [HBY, Huperzine A, reference compound]",Escape latency (s) 1st day,"[2]; HBY 0.2 mg/kg oral once a day, 1st day of test",76.29 ± 9.74 s
same,Escape latency (s) 2nd day,"[2]; HBY 0.2 mg/kg oral once a day, 2nd day of test",64.58 ± 10.36 s
same,Escape latency (s) 3rd day,"[2]; HBY 0.2 mg/kg oral once a day, 3rd day of test",63.83 ± 10.12 s
same,Latency bias(%),"[2]; probe trial, 4th day, within 60 s, HBY 0.2 mg/kg",22.18 ± 5.93%
same,step-through latency,[3]; vs model group (FIG. 5),significantly prolonged
same,number of errors,[3]; vs model group (FIG. 6),significantly reduced
same,ChAT activity (pmol/mg prot./min),ChAT,100.70 ± 5.99 pmol/mg prot./min
same,SOD activity (NU/mg prot.) cerebral cortex,SOD; cerebral cortex,48.95 ± 2.13 NU/mg prot.
same,SOD activity (NU/mg prot.) hippocampus,SOD; hippocampus,69.91 ± 6.51 NU/mg prot.
same,MDA content (nmol/ml) cerebral cortex,MDA; cerebral cortex,1.61 ± 0.13 nmol/mL
same,MDA content (nmol/ml) hippocampus,MDA; hippocampus,2.26 ± 0.39 nmol/mL
same,GSH-PX (U/mg prot.) cerebral cortex,GSH-PX; cerebral cortex,8.85 ± 1.33 U/mg prot.
same,GSH-PX (U/mg prot.) hippocampus,GSH-PX; hippocampus,5.29 ± 0.99 U/mg prot.
same,ATPase activity (μmol Pi/mg prot./hour) cerebral cortex,"Na+, K+-ATPase; cerebral cortex",0.91 ± 0.05 μmol Pi/mg prot./hour
same,ATPase activity (μmol Pi/mg prot./hour) hippocampus,"Na+, K+-ATPase; hippocampus",2.35 ± 10.43 μmol Pi/mg prot./hour
heparin [reference compound],effect on preformed Aβ1-40 fibers (TEM),Aβ1-40 fibril,become much denser and longer
same,conformational transition of Aβ1-40 to β-sheet structure (CD),Aβ1-40,significantly accelerates the conformational transition to β-sheet structure
